Reference: ChEMBL document CHEMBL3124787, “Discovery of novel bis-oxazolidinone compounds as potential potent and selective antitubercular agents” (Bioorg Med Chem Lett, 2014)
Values after ≈ are worked out from the molar mass of the structure shown.

Columns and labels:
Staphylococcus aureus [1] = test: Antibacterial activity against methicillin-resistant Staphylococcus aureus ATCC 43300 assessed as growth inhibition after 18 hrs by broth microdilution method; format: functional; settings: ATCC 43300, 18 h
Staphylococcus aureus [2] = test: Antibacterial activity against methicillin-susceptible Staphylococcus aureus ATCC 29213 assessed as growth inhibition after 18 hrs by broth microdilution method; format: functional; settings: ATCC 29213, 18 h
Staphylococcus aureus [3] = test: Antibacterial activity against methicillin-susceptible Staphylococcus aureus CMCC 26003 assessed as growth inhibition after 18 hrs by broth microdilution method; format: functional; settings: CMCC 26003, 18 h
[4] = Lipophilicity, log P of the compound by HPLC analysis; format: physicochemical
Staphylococcus aureus [5] = test: Antibacterial activity against methicillin-susceptible Staphylococcus aureus ATCC 6538 assessed as growth inhibition after 18 hrs by broth microdilution method; format: functional; settings: ATCC 6538, 18 h
[6] = system: Mycolicibacterium smegmatis; test: Antibacterial activity against Mycobacterium smegmatis assessed as growth inhibition after 18 hrs by broth microdilution method; format: functional
Staphylococcus aureus [7] = test: Antibacterial activity against methicillin-susceptible Staphylococcus aureus ATCC 25923 assessed as growth inhibition after 18 hrs by broth microdilution method; format: functional; settings: ATCC 25923, 18 h
[8] = Aqueous solubility of the compound by HPLC analysis; format: physicochemical
Staphylococcus aureus [9] = test: Antibacterial activity against methicillin-resistant Staphylococcus aureus ATCC 33591 assessed as growth inhibition after 18 hrs by broth microdilution method; format: functional; settings: ATCC 33591, 18 h
Pseudomonas aeruginosa = test: Antibacterial activity against Pseudomonas aeruginosa ATCC 27853 assessed as growth inhibition after 18 hrs by broth microdilution method; format: functional; settings: ATCC 27853, 18 h
Escherichia coli = test: Antibacterial activity against Escherichia coli ATCC 25922 assessed as growth inhibition after 18 hrs by broth microdilution method; format: functional; settings: ATCC 25922, 18 h
[10] = system: Mycobacterium tuberculosis; test: Antitubercular activity against Mycobacterium tuberculosis H37RV ATCC 27294 assessed as growth inhibition after 3 to 11 days by microdilution method; format: functional

| Structure (SMILES) | MIC99 (Staphylococcus aureus [1]) | MIC99 (Staphylococcus aureus [2]) | MIC99 (Staphylococcus aureus [3]) | logP [4] | MIC99 (Staphylococcus aureus [5]) | MIC99 [6] | MIC99 (Staphylococcus aureus [7]) | solubility [8] | MIC99 (Staphylococcus aureus [9]) | MIC99 (Pseudomonas aeruginosa) | MIC99 (Escherichia coli) | MIC [10] |
| --- | --- | --- | --- | --- | --- | --- | --- | --- | --- | --- | --- | --- |
| CC(=O)NC[C@H]1CN(c2ccc(OC[C@H](O)CNc3ccccc3)c(F)c2)C(=O)O1 | 8 µg/mL (≈ 19.2 µM) | 8 µg/mL (≈ 19.2 µM) | 8 µg/mL (≈ 19.2 µM) | 0.59 | 4 µg/mL (≈ 9.58 µM) | > 64 µg/mL | 8 µg/mL (≈ 19.2 µM) | 296 µM (≈ 124 µg/mL) | 8 µg/mL (≈ 19.2 µM) | > 32 µg/mL | > 32 µg/mL | – |
| CC(=O)NC[C@H]1CN(c2ccc(OC[C@@H](O)CNc3ccc(C#N)cc3)c(F)c2)C(=O)O1 | 8 µg/mL (≈ 18.1 µM) | 16 µg/mL (≈ 36.2 µM) | 8 µg/mL (≈ 18.1 µM) | 2.12 | 4 µg/mL (≈ 9.04 µM) | 16 µg/mL (≈ 36.2 µM) | 16 µg/mL (≈ 36.2 µM) | 47 µM (≈ 20.8 µg/mL) | 16 µg/mL (≈ 36.2 µM) | > 32 µg/mL | > 32 µg/mL | – |
| CC(=O)NC[C@H]1CN(c2ccc(OC[C@H](O)CNc3cc(C(F)(F)F)cc(C(F)(F)F)c3)c(F)c2)C(=O)O1 | > 32 µg/mL | > 32 µg/mL | > 32 µg/mL | 3.01 | 32 µg/mL (≈ 57.8 µM) | > 64 µg/mL | > 32 µg/mL | 22 µM (≈ 12.2 µg/mL) | > 32 µg/mL | > 32 µg/mL | > 32 µg/mL | – |
| CC(=O)NC[C@H]1CN(c2ccc(NC[C@H](O)COc3ccc(N4C[C@H](CNC(C)=O)OC4=O)cc3F)c(F)c2)C(=O)O1 | – | – | – | 0.59 | – | – | – | 81 µM (≈ 47.9 µg/mL) | – | – | – | 32 µg/mL (≈ 54.1 µM) |
| CC(=O)NC[C@H]1CN(c2ccc(OC[C@H](O)CNC3CC3)c(F)c2)C(=O)O1 | > 32 µg/mL | > 32 µg/mL | > 32 µg/mL | -0.1 | > 32 µg/mL | > 64 µg/mL | > 32 µg/mL | 2200 µM (≈ 840 µg/mL) | > 32 µg/mL | > 32 µg/mL | > 32 µg/mL | – |
| CC(=O)NC[C@H]1CN(c2ccc(OC[C@H](O)CNc3cccnc3)c(F)c2)C(=O)O1 | 32 µg/mL (≈ 76.5 µM) | 32 µg/mL (≈ 76.5 µM) | 32 µg/mL (≈ 76.5 µM) | -0.18 | 32 µg/mL (≈ 76.5 µM) | > 64 µg/mL | 32 µg/mL (≈ 76.5 µM) | 10100 µM (≈ 4240 µg/mL) | 32 µg/mL (≈ 76.5 µM) | > 32 µg/mL | > 32 µg/mL | – |
| CC(=O)NC[C@H]1CN(c2ccc(OC[C@@H](O)CNc3cccnc3)c(F)c2)C(=O)O1 | > 32 µg/mL | > 32 µg/mL | > 32 µg/mL | 0.02 | > 32 µg/mL | > 64 µg/mL | > 32 µg/mL | 3040 µM (≈ 1270 µg/mL) | > 32 µg/mL | > 32 µg/mL | > 32 µg/mL | – |
| COc1ccc(NC[C@@H](O)COc2ccc(N3C[C@H](CNC(C)=O)OC3=O)cc2F)cc1 | 16 µg/mL (≈ 35.8 µM) | 16 µg/mL (≈ 35.8 µM) | 8 µg/mL (≈ 17.9 µM) | 1.15 | 8 µg/mL (≈ 17.9 µM) | 64 µg/mL (≈ 143 µM) | 16 µg/mL (≈ 35.8 µM) | 1.3 µM (≈ 0.582 µg/mL) | 16 µg/mL (≈ 35.8 µM) | > 32 µg/mL | > 32 µg/mL | – |
| CC(=O)NC[C@H]1CN(c2ccc(OC[C@H](O)CNc3ccncc3)c(F)c2)C(=O)O1 | > 32 µg/mL | > 32 µg/mL | > 32 µg/mL | 0.02 | > 32 µg/mL | > 64 µg/mL | > 32 µg/mL | 24600 µM (≈ 10300 µg/mL) | > 32 µg/mL | > 32 µg/mL | > 32 µg/mL | – |
| NNC(=O)c1ccncc1 [ISONIAZID] | – | – | – | – | – | 4 µg/mL (≈ 29.2 µM) | – | – | – | – | – | 0.0625 µg/mL (≈ 0.456 µM) |
| CC(=O)NC[C@H]1CN(c2ccc(OC[C@H](O)CNc3ccccn3)c(F)c2)C(=O)O1 | > 32 µg/mL | > 32 µg/mL | > 32 µg/mL | 1.6 | > 32 µg/mL | > 64 µg/mL | > 32 µg/mL | 35100 µM (≈ 14700 µg/mL) | > 32 µg/mL | > 32 µg/mL | > 32 µg/mL | – |
| CC(=O)NC[C@H]1CN(c2ccc(OC[C@@H](O)CNc3ccccn3)c(F)c2)C(=O)O1 | > 32 µg/mL | > 32 µg/mL | > 32 µg/mL | 1.37 | > 32 µg/mL | > 64 µg/mL | > 32 µg/mL | 22200 µM (≈ 9290 µg/mL) | > 32 µg/mL | > 32 µg/mL | > 32 µg/mL | – |
| CC(=O)NC[C@H]1CN(c2ccc(OC[C@@H](O)CNCCC(C)C)c(F)c2)C(=O)O1 | > 32 µg/mL | > 32 µg/mL | > 32 µg/mL | 1.17 | > 32 µg/mL | > 64 µg/mL | > 32 µg/mL | 385 µM (≈ 158 µg/mL) | > 32 µg/mL | > 32 µg/mL | > 32 µg/mL | – |
| CC(=O)NC[C@H]1CN(c2ccc(OC[C@H](O)CNCCC(C)C)c(F)c2)C(=O)O1 | > 32 µg/mL | > 32 µg/mL | > 32 µg/mL | 1.19 | > 32 µg/mL | > 64 µg/mL | > 32 µg/mL | 7280 µM (≈ 2990 µg/mL) | > 32 µg/mL | > 32 µg/mL | > 32 µg/mL | – |
| CC(=O)NC[C@H]1CN(c2ccc(OC[C@@H](O)CNc3cc(C(F)(F)F)cc(C(F)(F)F)c3)c(F)c2)C(=O)O1 | 16 µg/mL (≈ 28.9 µM) | 16 µg/mL (≈ 28.9 µM) | 16 µg/mL (≈ 28.9 µM) | 3.1 | 8 µg/mL (≈ 14.5 µM) | 16 µg/mL (≈ 28.9 µM) | 16 µg/mL (≈ 28.9 µM) | – | 32 µg/mL (≈ 57.8 µM) | > 32 µg/mL | > 32 µg/mL | – |
| CC(=O)NC[C@H]1CN(c2ccc(OC[C@@H]3CN(c4ccc(N5C[C@H](CNC(C)=O)OC5=O)cc4F)C(=O)O3)c(F)c2)C(=O)O1 | – | – | – | 0.43 | – | – | – | 333 µM (≈ 206 µg/mL) | – | – | – | 16 µg/mL (≈ 25.9 µM) |
| O=C1O[C@H](COc2ccccc2F)CN1c1ccccc1 | – | – | – | 3.19 | – | – | – | 441 µM (≈ 127 µg/mL) | – | – | – | 32 µg/mL (≈ 111 µM) |
| CC(=O)NC[C@H]1CN(c2ccc(OC[C@@H]3CNC(=O)O3)c(F)c2)C(=O)O1 | – | – | – | 0.01 | – | – | – | 2720 µM (≈ 999 µg/mL) | – | – | – | 8 µg/mL (≈ 21.8 µM) |
| CC(=O)NC[C@H]1CN(c2ccc(OC[C@@H](O)CNC3CC3)c(F)c2)C(=O)O1 | > 32 µg/mL | > 32 µg/mL | > 32 µg/mL | 0.02 | > 32 µg/mL | 32 µg/mL (≈ 83.9 µM) | > 32 µg/mL | 96000 µM (≈ 36600 µg/mL) | > 32 µg/mL | > 32 µg/mL | > 32 µg/mL | – |
| CC(=O)NC[C@H]1CN(c2ccc(OC[C@H](O)CNc3ccc(C#N)cc3)c(F)c2)C(=O)O1 | 16 µg/mL (≈ 36.2 µM) | 16 µg/mL (≈ 36.2 µM) | 8 µg/mL (≈ 18.1 µM) | 1.29 | 8 µg/mL (≈ 18.1 µM) | 32 µg/mL (≈ 72.3 µM) | 16 µg/mL (≈ 36.2 µM) | 69 µM (≈ 30.5 µg/mL) | 16 µg/mL (≈ 36.2 µM) | > 32 µg/mL | > 32 µg/mL | – |
| CC(=O)NC[C@H]1CN(c2ccc(OC[C@@H](O)CNc3ccncc3)c(F)c2)C(=O)O1 | > 32 µg/mL | > 32 µg/mL | > 32 µg/mL | -0.04 | > 32 µg/mL | > 64 µg/mL | > 32 µg/mL | 17700 µM (≈ 7420 µg/mL) | > 32 µg/mL | > 32 µg/mL | > 32 µg/mL | – |
